Read-outs that look alike come from different tables or passages of the source.
Columns and labels:
HBV = details: therapeutic index at the EC50, HepG2
HIV-1 = details: for EC50: read-out: EC50 (PBMCs) HIV-1
PBMCs = experiment: Cytotoxicity in uninfected PBMCs; details: read-out: CC50 (PBMCs), concentration required to reduce the viability of uninfected cells by 50%, triplicate
HepG2 [1] = experiment: Cytotoxicity in uninfected HepG2 cells; details: read-out: CC50 (HepG2), concentration required to reduce the viability of uninfected cells by 50%, triplicate
[2] = phase I, preliminary data on Chimerix's website; cited from earlier work
HepG2 [3] = details: human
in vitro = details: human
[4] = clinical trials; cited from earlier work
Stability in PBS = details: all examined media except human serum
[5] = monkeys; cited from earlier work
[6] = rats; cited from earlier work
[7] = therapeutic index at the EC50, PBMCs

Compound	TI (CC50/EC50) HBV (HBV)	TI (CC50/EC50) HIV-1 (HIV-1)	EC50 (HIV-1)	also measured
2-(Decyldisulfanyl)ethyl (2-(Decylsulfinothioyl)ethyl) ((((R)-1-(6-Amino-9H-purin-9-yl)propan-2-yl)oxy)methyl)phosphonate [13a]	>1	>287	0.349 µM	CC50 (PBMCs): > 100 µM; CC50 (HepG2 [1]): > 100 µM
C[C@H](Cn1cnc2c(N)ncnc21)OCP(=O)(O)OCCS [compound 9, 2-Mercaptoethyl Hydrogen ((((R)-1-(6-Amino-9H-purin-9-yl)-propan-2yl)oxy)methyl)phosphonate]	>2.4	>5.38	–	–
2-(Hexadecyldisulfanyl)ethyl Octyl ((((R)-1-(6-Amino-9H-purin-9-yl)propan-2-yl)oxy)methyl)phosphonate [compound 22]	–	>50	0.911 µM	–
2-(Dodecyldisulfanyl)ethyl (2-(Dodecylsulfinothioyl)ethyl) ((((R)-1-(6-Amino-9H-purin-9-yl)propan-2-yl)oxy)methyl)phosphonate [13b]	>1	>85.0	1.18 µM	CC50 (PBMCs): > 100 µM; CC50 (HepG2 [1]): > 100 µM
2-(Octadecyldisulfanyl)ethyl (2-(Octadecylsulfinothioyl)ethyl) ((((R)-1-(6-Amino-9H-purin-9-yl)propan-2-yl)oxy)methyl)-phosphonate [13e]	>1	>76	0.331 µM	CC50 (PBMCs): > 25 µM; CC50 (HepG2 [1]): > 25 µM
C[C@H](Cn1cnc2c(N)ncnc21)OCP(=O)(O)O [TFV, Tenofovir, reference compound]	–	>300	–	–
CCCCCCCCCCCCCCCCOCCCOP(=O)(O)CO[C@H](C)Cn1cnc2c(N)ncnc21 [compound 1, hexadecyloxypropyl-tenofovir, reference compound]	–	>5000	–	tolerability [2]: well-tolerated
C[C@H](Cn1cnc2c(N)ncnc21)OCP(=O)(O)OCCSSCCO [DTE–TFV, 2-((2-Hydroxyethyl)disulfanyl)ethyl Hydrogen ((((R)-1-(6-Amino-9H-purin-9-yl)propan-2-yl)oxy)methyl)phosphonate]	>8.6	>62.1	–	–
2-(Tetradecyldisulfanyl)ethyl (2-(Tetradecylsulfinothioyl)ethyl) ((((R)-1-(6-Amino-9H-purin-9-yl)propan-2-yl)oxy)methyl)-phosphonate [13c]	>1	>529	0.189 µM	CC50 (PBMCs): > 100 µM; CC50 (HepG2 [1]): > 100 µM
2-(Hexadecyldisulfanyl)ethyl (2-(Hexadecylsulfinothioyl)ethyl) ((((R)-1-(6-Amino-9H-purin-9-yl)propan-2-yl)oxy)methyl)-phosphonate [13d]	>1	4.0	6.32 µM	CC50 (PBMCs): > 25 µM; CC50 (HepG2 [1]): > 25 µM
CCCCCCCCCCCCCCCCCCSSCCOP(=O)(O)CO[C@H](C)Cn1cnc2c(N)ncnc21.N [12e, 2-(Octadecyldisulfanyl)ethyl Hydrogen ((((R)-1-(6-Amino-9H-purin-9-yl)propan-2-yl)oxy)methyl)phosphonate]	>50	–	–	–
CC(C)OC(=O)OCOP(=O)(CO[C@H](C)Cn1cnc2c(N)ncnc21)OCOC(=O)OC(C)C.O=C(O)/C=C/C(=O)O [TDF, tenofovir disoproxil fumarate]	–	–	–	CC50 (HepG2 [3]): 64.5 µM; CC50 (in vitro): 29.2 µM
CC(C)OC(=O)[C@H](C)N[P@](=O)(CO[C@H](C)Cn1cnc2c(N)ncnc21)Oc1ccccc1 [TAF, tenofovir-alafenamide]	–	–	–	nephrotoxicity [4]: little to no nephrotoxicity
CCCCCCCCCCSSCCOP(=O)(O)CO[C@H](C)Cn1cnc2c(N)ncnc21.N [12a, 2-(Decyldisulfanyl)ethyl Hydrogen ((((R)-1-(6-Amino-9H-purin-9-yl)propan-2-yl)oxy)methyl)phosphonate]	>1	–	–	TI (CC50/EC50) HIV-1 (HIV-1; [7]): >590
CCCCCCCCCCCCCCCCSSCCOP(=O)(O)CO[C@H](C)Cn1cnc2c(N)ncnc21.N [12d, 2-(Hexadecyldisulfanyl)ethyl Hydrogen ((((R)-1-(6-Amino-9H-purin-9-yl)propan-2-yl)oxy)methyl)phosphonate]	>1200	–	–	–
CCCCCCCCCCCCCCSSCCOP(=O)(O)CO[C@H](C)Cn1cnc2c(N)ncnc21.N [12c, 2-(Tetradecyldisulfanyl)ethyl Hydrogen ((((R)-1-(6-Amino-9H-purin-9-yl)propan-2-yl)oxy)methyl)phosphonate]	>56	–	–	TI (CC50/EC50) HIV-1 (HIV-1; [7]): 28000; fold stability increase over 12d (Stability in PBS): ~2 fold
Nc1ncnc2c1ncn2CCOCP(=O)(O)O [adefovir]	–	–	–	bioavailability [5]: < 1%; bioavailability [6]: 8–11%
CCCCCCCCCCCCSSCCOP(=O)(O)CO[C@H](C)Cn1cnc2c(N)ncnc21.N [12b, 2-(Dodecyldisulfanyl)ethyl Hydrogen ((((R)-1-(6-Amino-9H-purin-9-yl)propan-2-yl)oxy)methyl)phosphonate]	>30	–	–	–
